Results published in US9695151B2, “3,4-dihydro-2H-isoquinoline-1-one and 2,3-dihydro-isoindol-1-one compounds” (Hoffmann-La Roche Inc., priority 2013, dated 2017).

Experiments:
[1] = target: CYP11B2 (Homo sapiens (Human), UniProt P19099); test: G-402 cellular enzyme assay, human CYP11B2 (aldosterone release); assay type: cell-based; conditions: G-402 cells, 1 μM Deoxycorticosterone
Source text: (§1) Herein we identified the use of the G-402 cell line as a host cell to ectopically express (transiently or stably) enzymes of the CYP11 family. Specifically we developed stable G-402 cells expressing ectopically human CYP11B1, human CYP11B2, human CYP11A1, cynmolgus CYP11B1 or cynomolgus CYP11B2 enzyme activity. Importantly the identified cell line G-402 expresses co-factors (adrenodoxin and adrenodoxin reductase) important for the activity of the CYP11 family and no relevant enzyme activity of the CYP11 family (in comparison to H295R cells) was detected in these cells. Therefore the G-402 cell line is uniquely suited as a host cell for the ectopic expression of enzymes from the CYP11 family.
(§2) G-402 cells can be obtained from ATCC (CRL-1440) and were originally derived from a renal leiomyoblastoma.
(§3) The expression plasmids contains the ORF for either human/cyno CYP11B1 or CYP11B2 under the control of a suitable promoter (CMV-promoter) and a suitable resistance marker (neomycin). Using standard techniques the expression plasmid is transfected into G-402 cells and these cells are then selected for expressing the given resistance markers. Individual cell-clones are then selected and assessed for displaying the desired enzymatic activity using 11-Deoxycorticosterone (Cyp11B2) or 11-Deoxycortisol (Cyp11B1) as a substrate.
(§4) G-402 cells expressing CYP11 constructs were established as described above and maintained in McCoy's 5a Medium Modified, ATCC Catalog No. 30-2007 containing 10% FCS and 400 μg/ml G418 (Geneticin) at 37° C. under an atmosphere of 5% CO2/95% air. Cellular enzyme assays were performed in DMEM/F12 medium containing 2.5% charcoal treated FCS and appropriate concentration of substrate (0.3-10 uM 11-Deoxycorticosterone, 11-Deoxycortisol or Corticosterone). For assaying enzymatic activity, cells were plated onto 96 well plates and incubated for 16 h. An aliquot of the supernatant is then transferred and analyzed for the concentration of the expected product (Aldosterone for CYP11B2; Cortisol for CYP11B1). The concentrations of these steroids can be determined using HTRF assays from CisBio analyzing either Aldosterone or Cortisol.
(§5) Inhibition of the release of produced steroids can be used as a measure of the respective enzyme inhibition by test compounds added during the cellular enzyme assay. The dose dependent inhibition of enzymatic activity by a compound is calculated by means of plotting added inhibitor concentrations (x-axes) vs. measured steroid/product level (y-axes). The inhibition is then calculated by fitting the following 4-parameter sigmoidal function (Morgan-Mercer-Flodin (MMF) model) to the raw data points using the least squares method:
(§6) [formula] wherein, A is the maximum y value, B is the EC50 factor determined using XLFit, C is the minimum y value and D is the slope value.
(§7) EC50 values for compounds claimed herein were tested with the G402-based assay system described. Cyp11B2 enzyme activity was tested in presence of 1 μM Deoxycorticosterone and variable amounts of inhibitors; Cyp11B1 enzyme activity was tested in presence of 1 μM Deoxycortisol and variable amounts of inhibitors.

[2] = target: human CYP11B1 (Homo sapiens (Human), UniProt P15538); test: G-402 cellular enzyme assay, human CYP11B1 (cortisol release); assay type: cell-based; conditions: G-402 cells, 1 μM Deoxycortisol
Source text: as §1, §2, §3, §4, §5, §6, §7

Sequence of CYP11B2 (P19099 25-503): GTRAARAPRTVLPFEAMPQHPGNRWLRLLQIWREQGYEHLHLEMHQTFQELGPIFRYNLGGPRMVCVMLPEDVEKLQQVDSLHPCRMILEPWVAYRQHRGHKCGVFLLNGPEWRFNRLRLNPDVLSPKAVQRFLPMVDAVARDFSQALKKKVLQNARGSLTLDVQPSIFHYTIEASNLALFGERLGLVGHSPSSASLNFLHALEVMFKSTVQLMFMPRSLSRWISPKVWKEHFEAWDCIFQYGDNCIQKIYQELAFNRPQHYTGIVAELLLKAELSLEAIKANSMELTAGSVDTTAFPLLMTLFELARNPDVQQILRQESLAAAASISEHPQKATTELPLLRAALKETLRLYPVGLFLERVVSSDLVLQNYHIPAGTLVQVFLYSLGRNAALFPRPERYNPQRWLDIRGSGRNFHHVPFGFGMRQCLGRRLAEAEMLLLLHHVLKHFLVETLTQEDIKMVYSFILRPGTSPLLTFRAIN
Sequence of human CYP11B1 (P15538 25-503): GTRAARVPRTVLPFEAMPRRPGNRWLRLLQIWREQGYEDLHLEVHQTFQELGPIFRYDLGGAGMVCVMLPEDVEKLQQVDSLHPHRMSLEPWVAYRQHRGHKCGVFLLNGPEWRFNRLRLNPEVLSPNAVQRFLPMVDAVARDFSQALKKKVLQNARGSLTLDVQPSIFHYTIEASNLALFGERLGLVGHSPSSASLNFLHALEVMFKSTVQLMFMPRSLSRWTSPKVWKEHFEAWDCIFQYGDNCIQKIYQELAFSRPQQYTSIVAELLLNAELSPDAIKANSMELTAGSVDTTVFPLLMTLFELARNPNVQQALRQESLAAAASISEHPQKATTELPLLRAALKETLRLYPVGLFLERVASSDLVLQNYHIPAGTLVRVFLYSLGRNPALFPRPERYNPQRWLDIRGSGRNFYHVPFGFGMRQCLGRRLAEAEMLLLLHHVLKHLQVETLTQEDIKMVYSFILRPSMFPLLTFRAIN

Row | SMILES | EC50 [1] [nM] | EC50 [2] [nM]
1 | CN(c1cncc(N2C(=O)c3ccc(Cl)cc3C2(C)C)c1)C1CCN(S(C)(=O)=O)CC1 [Example 21, 5-Chloro-3,3-dimethyl-2-[5-[methyl-(1-methylsulfonylpiperidin-4-yl)amino]pyridin-3-yl]isoindol-1-one] | 3 | 3
2 | CC(C)S(=O)(=O)N1CCCC(Nc2cncc(N3C(=O)c4ccc(Cl)cc4C3(C)C)c2)C1 (single isomer, unassigned) [Example 26, 5-Chloro-3,3-dimethyl-2-[5-[[(3R or 3S)-1-propan-2-ylsulfonylpiperidin-3-yl]amino]pyridin-3-yl]isoindol-1-one] | 2360 | > 30000
3 | CCCS(=O)(=O)N1CCC(N(C)c2cncc(N3C(=O)c4ccc(Cl)cc4C3(C)C)c2)C1 (single isomer, unassigned) [Example 18, 5-Chloro-3,3-dimethyl-2-[5-[methyl-[(3R or 3S)-1-propylsulfonylpyrrolidin-3-yl]amino]pyridin-3-yl]isoindol-1-one] | 1 | 233
4 | CCS(=O)(=O)N1CC(N(C)c2cncc(N3C(=O)c4ccc(Cl)cc4C3(C)C)c2)C1 [Example 10, 5-Chloro-2-[5-[(1-ethylsulfonylazetidin-3-yl)-methylamino]pyridin-3-yl]-3,3-dimethylisoindol-1-one] | 0.5 | 39
5 | CC1(C)c2cc(Cl)ccc2C(=O)N1c1cncc(NC2CN(S(C)(=O)=O)C2)c1 [Example 8, 5-Chloro-3,3-dimethyl-2-[5-[(1-methylsulfonylazetidin-3-yl)amino]pyridin-3-yl]isoindol-1-one] | 17 | 2800
6 | CC(C)S(=O)(=O)N1CC(N(C)c2cncc(N3C(=O)c4ccc(Cl)cc4C3(C)C)c2)C1 [Example 13, 5-Chloro-3,3-dimethyl-2-[5-[methyl-(1-propan-2-ylsulfonylazetidin-3-yl)amino]pyridin-3-yl]isoindol-1-one] | 0.5 | 37
7 | CCCS(=O)(=O)N1CC(N(C)c2cncc(N3C(=O)c4ccc(Cl)cc4C3(C)C)c2)C1 [Example 14, 5-Chloro-3,3-dimethyl-2-[5-[methyl-(1-propylsulfonylazetidin-3-yl)amino]pyridin-3-yl]isoindol-1-one] | 0.6 | 25
8 | CC(C)S(=O)(=O)N1CCC(N(C)c2cncc(N3C(=O)c4ccc(Cl)cc4C3(C)C)c2)C1 (single isomer, unassigned) [Example 15, 5-Chloro-3,3-dimethyl-2-[5-[methyl-[(3S or 3R)-1-propan-2-ylsulfonylpyrrolidin-3-yl]amino]pyridin-3-yl]isoindol-1-one] | 1 | 732
9 | CCCS(=O)(=O)N1CCC(N(C)c2cncc(N3C(=O)c4ccc(Cl)cc4C3(C)C)c2)C1 (single isomer, unassigned) [Example 17, 5-Chloro-3,3-dimethyl-2-[5-[methyl-[(3S or 3R)-1-propylsulfonylpyrrolidin-3-yl]amino]pyridin-3-yl]isoindol-1-one] | 1 | 129
10 | CCS(=O)(=O)N1CC(Nc2cncc(N3C(=O)c4ccc(Cl)cc4C3(C)C)c2)C1 [Example 7, 5-Chloro-2-[5-[(1-ethylsulfonylazetidin-3-yl)amino]pyridin-3-yl]-3,3-dimethylisoindol-1-one] | 8 | 1640
11 | CCS(=O)(=O)N1CCC(Nc2cncc(N3C(=O)c4ccc(Cl)cc4C3(C)C)c2)CC1 [Example 6, 5-Chloro-2-[5-[(1-ethylsulfonylpiperidin-4-yl)amino]pyridin-3-yl]-3,3-dimethylisoindol-1-one] | 4 | 1540
12 | CCS(=O)(=O)N1CCCC(Nc2cncc(N3C(=O)c4ccc(Cl)cc4C3(C)C)c2)C1 (single isomer, unassigned) [Example 24, 5-Chloro-2-[5-[[(3R or 3S)-1-ethylsulfonylpiperidin-3-yl]amino]pyridin-3-yl]-3,3-dimethylisoindol-1-one] | 352 | 38000
13 | CC(=O)N1CCC(Nc2cncc(N3C(=O)c4ccc(Cl)cc4C3(C)C)c2)CC1 [Example 5, 2-[5-[(1-Acetylpiperidin-4-yl)amino]pyridin-3-yl]-5-chloro-3,3-dimethylisoindol-1-one] | 31 | 2450
14 | CCC(=O)N1CCC(N(C)c2cncc(N3C(=O)c4ccc(Cl)cc4C3(C)C)c2)CC1 [Example 19, 5-Chloro-3,3-dimethyl-2-[5-[methyl-(1-propanoylpiperidin-4-yl)amino]pyridin-3-yl]isoindol-1-one] | 0.7 | 2
15 | CC(=O)N1CC(Nc2cncc(N3CCc4cc(Cl)ccc4C3=O)c2)C1 [Example 32, 2-[5-[(1-Acetylazetidin-3-yl)amino]pyridin-3-yl]-6-chloro-3,4-dihydroisoquinolin-1-one] | 215 | 41100
16 | CC(=O)N1CC(N(C)c2cncc(N3C(=O)c4ccc(Cl)cc4C3(C)C)c2)C1 [Example 2, 2-[5-[(1-Acetylazetidin-3-yl)-methylamino]pyridin-3-yl]-5-chloro-3,3-dimethylisoindol-1-one] | 12 | 552

Continued, values first:

Row | EC50 [1] [nM] | EC50 [2] [nM] | SMILES
17 | 44 | 15400 | CCC(=O)N1CC2(CC(Nc3cncc(N4C(=O)c5ccc(Cl)cc5C4(C)C)c3)C2)C1 [Example 36, 5-Chloro-3,3-dimethyl-2-[5-[(2-propanoyl-2-azaspiro[3.3]heptan-6-yl)amino]pyridin-3-yl]isoindol-1-one]
18 | 154 | 4180 | CCC(=O)N1CC(Nc2cncc(N3C(=O)c4ccc(Cl)cc4[C@@H]3C)c2)C1 (single isomer, unassigned) [Example 40, (3S or 3R)-5-Chloro-3-methyl-2-[5-[(1-propanoylazetidin-3-yl)amino]-3-pyridyl]isoindolin-1-one]
19 | 12 | 1070 | CCS(=O)(=O)N1CC(Nc2cncc(N3C(=O)c4ccc(Cl)cc4[C@@H]3C)c2)C1 (single isomer, unassigned) [Example 42, (3S or 3R)-5-Chloro-2-[5-[(1-ethylsulfonylazetidin-3-yl)amino]-3-pyridyl]-3-methyl-isoindolin-1-one]
20 | 70 | 4530 | CCS(=O)(=O)N1CC(Nc2cncc(N3C(=O)c4ccc(Cl)cc4C3C)c2)C1 (centres unmarked) [Example 34, 5-Chloro-2-[5-[(1-ethylsulfonylazetidin-3-yl)amino]pyridin-3-yl]-3-methyl-3H-isoindol-1-one]
21 | 449 | 6850 | CC(=O)N1CC2(CC(Nc3cncc(N4C(=O)c5ccc(Cl)cc5C4(C)C)c3)C2)C1 [Example 35, 2-[5-[(2-Acetyl-2-azaspiro[3.3]heptan-6-yl)amino]pyridin-3-yl]-5-chloro-3,3-dimethylisoindol-1-one]
22 | 10 | 7370 | CCS(=O)(=O)N1CC2(CC(Nc3cncc(N4C(=O)c5ccc(Cl)cc5C4(C)C)c3)C2)C1 [Example 37, 5-Chloro-2-[5-[(2-ethylsulfonyl-2-azaspiro[3.3]heptan-6-yl)amino]pyridin-3-yl]-3,3-dimethylisoindol-1-one]
23 | 122 | 5930 | CCC(=O)N1CC(Nc2cncc(N3C(=O)c4ccc(C#N)cc4C3(C)C)c2)C1 [Example 45, 3,3-Dimethyl-1-oxo-2-[5-[(1-propanoylazetidin-3-yl)amino]-3-pyridyl]isoindoline-5-carbonitrile]
24 | 92 | 10800 | CCC(=O)N1CC(Nc2cncc(N3C(=O)c4ccc(Cl)cc4[C@H]3C)c2)C1 (single isomer, unassigned) [Example 39, (3R or 3S)-5-Chloro-3-methyl-2-[5-[(1-propanoylazetidin-3-yl)amino]-3-pyridyl]isoindolin-1-one]
25 | 39 | 10900 | CCS(=O)(=O)N1CC(Nc2cncc(N3C(=O)c4ccc(Cl)cc4[C@H]3C)c2)C1 (single isomer, unassigned) [Example 41, (3R or 3S)-5-Chloro-2-[5-[(1-ethylsulfonylazetidin-3-yl)amino]-3-pyridyl]-3-methyl-isoindolin-1-one]
